Test results from patent US20240390340A1 (INCYTE CORPORATION, priority 2023, published 2024).
Like-named read-outs stand apart in the source and are kept apart here.

Legend:
KRAS G12D = KRAS G12D (Homo sapiens, UniProt P01116, G12D); experiment: GDP-GTP exchange assay (bodipy-GDP/GppNHp, SOS1), KRAS G12D; assay type: biochemical
KRAS G12V = KRAS G12V (Homo sapiens, UniProt P01116, G12V); experiment: GDP-GTP exchange assay (bodipy-GDP/GppNHp, SOS1), KRAS G12V; assay type: biochemical
[1] = bodipy-loaded KRAS G12D 2.5 nM, 4 h pre-incubation, value for the most potent isomer quoted for certain compounds, read-out: G12D (KRAS G12D exchange assay IC50)
[2] = KRAS G12V mutant, value for the most potent isomer quoted for certain compounds, read-out: G12V (KRAS G12V exchange assay IC50)
[3] = Table H, column G12D, for compounds isolated as several atropisomers/diastereoisomers the value for the most potent isomer is quoted, read-out: KRAS G12D exchange assay IC50
[4] = Table H, column G12V, for compounds isolated as several atropisomers/diastereoisomers the value for the most potent isomer is quoted, read-out: KRAS G12V exchange assay IC50

Sequence of KRAS G12D (P01116 1-188 isoform P01116-2 G12D): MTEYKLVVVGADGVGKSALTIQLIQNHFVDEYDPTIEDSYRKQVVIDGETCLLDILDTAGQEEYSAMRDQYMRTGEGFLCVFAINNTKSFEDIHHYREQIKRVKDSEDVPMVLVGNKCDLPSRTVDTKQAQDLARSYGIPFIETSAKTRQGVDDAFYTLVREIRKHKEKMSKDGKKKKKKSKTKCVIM
Sequence of KRAS G12V (P01116 1-188 isoform P01116-2 G12V): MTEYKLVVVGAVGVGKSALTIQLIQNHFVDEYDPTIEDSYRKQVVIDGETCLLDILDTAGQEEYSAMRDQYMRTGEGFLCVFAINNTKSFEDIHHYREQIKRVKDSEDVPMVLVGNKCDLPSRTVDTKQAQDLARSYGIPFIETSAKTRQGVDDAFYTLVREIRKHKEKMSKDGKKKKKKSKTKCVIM

Row | IC50 (KRAS G12D; [1]) | IC50 (KRAS G12V; [2]) | IC50 (KRAS G12D; [3]) | IC50 (KRAS G12V; [4]) | Compound
1 | ≤ 100 nM | ≤ 100 nM | – | – | Cc1nc2c(F)c(-c3cccc(Cl)c3Cl)c(CCC#N)cc2c2c1cc([C@H]1C[C@H](OCc3cccnc3N)CN1C(=O)C1CC1)n2[C@H]1[C@H]2CN[C@@H]1C2 [Example 149]
2 | ≤ 100 nM | ≤ 100 nM | – | – | [2H]C([2H])(O[C@H]1C[C@H](c2cc3c(C)nc4c(F)c(-c5cccc(Cl)c5Cl)c(CCC#N)cc4c3n2[C@H]2[C@H]3CN[C@@H]2C3)N(C(=O)C2CC2)[C@@H]1C)c1cc(C)sn1 [Example 241]
3 | ≤ 100 nM | ≤ 100 nM | – | – | Cc1nc2c(F)c(-c3cccc(Cl)c3Cl)c(CCC#N)cc2c2c1cc([C@H]1C[C@H](Oc3ccc(C(F)(F)F)nc3)CN1C(=O)C1CC1)n2[C@H]1[C@H]2CN[C@@H]1C2 [Example 308]
4 | ≤ 100 nM | ≤ 100 nM | – | – | Cc1nc2c(F)c(-c3cccc(Cl)c3Cl)c(CCC#N)cc2c2c1cc([C@H]1C[C@H](OCc3ccncc3)CN1C(=O)C1CC1)n2[C@H]1[C@H]2CN[C@@H]1C2 [Example 96]
5 | – | – | ≤ 100 nM | ≤ 100 nM | Cc1nc2c(F)c(-c3cccc(Cl)c3Cl)c(CCC#N)cc2c2c1cc([C@H]1C[C@H](Oc3ccc(N4CCOCC4)nc3)CN1C(=O)C1CC1)n2[C@H]1[C@H]2CN[C@@H]1C2 [Example 36, 3-(1-((1R,4R,5S)-2-Azabicyclo[2.1.1]hexan-5-yl)-2-((2R,4S)-1-(cyclopropanecarbonyl)-4-((6-morpholinopyridin-3-yl)oxy)pyrrolidin-2-yl)-7-(2,3-dichlorophenyl)-6-fluoro-4-methyl-1H-pyrrolo[3,2-c]quinolin-8-yl)propanenitrile]
6 | ≤ 100 nM | ≤ 100 nM | – | – | COC(=O)C1CCC(c2cn([C@H]3C[C@H](c4cc5c(C)nc6c(F)c(-c7cccc(Cl)c7Cl)c(CCC#N)cc6c5n4[C@H]4[C@H]5CN[C@@H]4C5)N(C(=O)C4CC4)C3)nn2)C1 (stereo partly shown) [Example 391]
7 | ≤ 100 nM | ≤ 100 nM | – | – | Cc1nc2c(F)c(-c3cccc(Cl)c3Cl)c(CCC#N)cc2c2c1cc([C@H]1C[C@H](Oc3cc(Cl)ccn3)CN1C(=O)C1CC1)n2[C@H]1[C@H]2CN[C@@H]1C2 [Example 297]
8 | – | – | ≤ 100 nM | ≤ 100 nM | Cc1nc2c(F)c(-c3cccc(Cl)c3Cl)c(CCC#N)cc2c2c1cc([C@H]1C[C@H](n3cc(C4(C)CCCCC4)nn3)CN1C(=O)C1CC1)n2[C@H]1[C@H]2CN[C@@H]1C2 [Example 66, 3-(1-((1R,4R,5S)-2-Azabicyclo[2.1.1]hexan-5-yl)-2-((2R,4S)-1-(cyclopropanecarbonyl)-4-(4-(1-methylcyclohexyl)-1H-1,2,3-triazol-1-yl)pyrrolidin-2-yl)-7-(2,3-dichlorophenyl)-6-fluoro-4-methyl-1H-pyrrolo[3,2-c]quinolin-8-yl)propanenitrile]
9 | ≤ 100 nM | ≤ 100 nM | – | – | Cc1nc2c(F)c(-c3cccc(Cl)c3Cl)c(CCC#N)cc2c2c1cc([C@H]1C[C@H](OC[C@@H]3CCCC[C@H]3C#N)CN1C(=O)C1CC1)n2[C@H]1[C@H]2CN[C@@H]1C2 [Example 285]
10 | ≤ 100 nM | ≤ 100 nM | – | – | Cc1nc2c(F)c(-c3cccc(Cl)c3Cl)c(CCC#N)cc2c2c1cc([C@H]1C[C@H](n3ncnn3)CN1C(=O)C1CC1)n2[C@H]1[C@H]2CN[C@@H]1C2 [Example 396]
11 | ≤ 100 nM | ≤ 100 nM | – | – | Cc1nc2c(F)c(-c3cccc(Cl)c3Cl)c(CCC#N)cc2c2c1cc([C@H]1C[C@H](n3ccc(N)n3)CN1C(=O)C1CC1)n2[C@H]1[C@H]2CN[C@@H]1C2 [Example 319]
12 | ≤ 100 nM | ≤ 100 nM | – | – | Cc1nc2c(F)c(-c3cccc(Cl)c3Cl)c(CCC#N)cc2c2c1cc([C@H]1C[C@H](Oc3cnn(CC(F)F)c3)CN1C(=O)C1CC1)n2[C@H]1[C@H]2CN[C@@H]1C2 [Example 377]
13 | ≤ 100 nM | ≤ 100 nM | – | – | Cc1ncc(CO[C@H]2C[C@H](c3cc4c(C)nc5c(F)c(-c6cccc(Cl)c6Cl)c(CCC#N)cc5c4n3[C@H]3[C@H]4CN[C@@H]3C4)N(C(=O)C3CC3)C2)s1 [Example 90]
14 | ≤ 100 nM | ≤ 100 nM | – | – | Cc1nc2c(F)c(-c3cccc(Cl)c3Cl)c(CCC#N)cc2c2c1cc([C@H]1C[C@H](n3cc(C45CC(N)(C4)C5)nn3)CN1C(=O)C1CC1)n2[C@H]1[C@H]2CN[C@@H]1C2 [Example 275]
